Source: patent US12030903B2, “Antiviral compounds” (Gilead Sciences, Inc., priority 2020, dated 2024)

What was measured:
[1] = HEp-2 CC50 (cytotoxicity in uninfected HEp-2 cells); type: cell-based; conditions: human, CellTiter Glo
Experimental: Instead, an uninfected cell mixture at the same density is added at 20 uL/well to plates containing prediluted compounds, also at 100 nL/sample. Assay plates are then incubated for 4 days followed by a cell viability test using the same CellTiter Glo reagent addition and measurement of luminescent readouts. Untreated cell and cells treated at 2 μM puromycin (Sigma, St. Louis, MO) serve as 100% and 0% cell viability control, respectively.

[2] = test system: Dengue serotype 2 New Guinea C (NGC) strain; test: DENV-2 Huh-7 EC50 (qPCR of viral RNA in infected Huh7 cells); type: cell-based; conditions: Dengue virus, DENV2, Huh-7, Huh7 cells infected with Dengue serotype 2 NGC, MOI=0.1, 48 hours
Experimental: Huh7 (Human hepatocarcinoma 7) cells were maintained in 10% FCS-containing DMEM complete media. On the day of the assay, cells were trypsinized (0.1% Trypsin-EDTA), washed and infected for 2 hours in serum-free DMEM with Dengue serotype 2 New Guinea C (NGC) strain at MOI=0.1 with gentle agitation at 37° C. After 2 hours, cells were washed with serum-free media and suspended in 10% FCS-containing DMEM (Gibco, supplemented with sodium pyruvate, NEAA, Penicillin-Streptomycin). 10^5 cells were plated in triplicate in 96-well plates with compounds dispensed at graded doses (Hewlett-Packard D300 Digital Dispenser). All wells were normalized to 0.25% DMSO. At 48 hours, cells were washed with 1× PBS and all supernatants removed. Total RNA was extracted using RNEasy 96 plates (Qiagen) and used to generate first-strand cDNA using XLT cDNA 5× Supermix (QuantaBio). cDNA was used as a template in a Taqman qPCR duplex reaction specific to DENV2 viral and GAPDH gene expression. EC50 values were determined using Prism Graphpad software, with normalization to a positive control and no compound negative control wells.

RSV strain A2 = test: RSV HEp-2 EC50 (infectious cytopathic cell protection assay); type: cell-based, RSV strain A2; HEp-2 cells; conditions: human respiratory syncytial virus, HEp-2, 96 h, read-out: RSV Hep-2 EC50
Experimental: Example 86. RSV HEp-2 EC50
Antiviral activity against RSV is determined using an infectious cytopathic cell protection assay in HEp-2 cells. In this assay, compounds inhibiting viral infection and/or replication produce a cytoprotective effect against the virus-induced cell killing that can be quantified using a cell viability reagent. The techniques used here are novel adaptations of methods described in published literature (Chapman et al., Antimicrob Agents Chemother. 2007, 51(9):3346-53.)
HEp-2 cells are obtained from ATCC (Manassas, VI) and maintained in MEM media supplemented with 10% fetal bovine serum and penicillin/streptomycin. Cells are passaged twice a week and kept at subconfluent stage. Commercial stock of RSV strain A2 (Advanced Biotechnologies, Columbia, MD) is titered before compound testing to determine the appropriate dilution of the virus stock that generates desirable cytopathic effect in HEp-2 cells.
For antiviral tests, HEp-2 cells are grown in large cell culture flasks to near confluency but not fully so. The compounds to be tested are prediluted in DMSO in 384-well compound dilution plates, either in an 8 or 40 sample per plate standardized dose response format. 3-fold serial dilution increments of each test compound are prepared in the plates and test samples are transferred via acoustic transfer apparatus (Echo, Labcyte) at 100 nL per well into cell culture assay 384-well plates. Each compound dilution is transferred in single or quadruplicate samples into dry assay plates, which are stored until assay is ready to go. The positive and negative controls are laid out in opposite on ends of the plate in vertical blocks (1 column).
Subsequently, an infectious mixture is prepared using an appropriate dilution of virus stock previously determined by titration with cells at a density of 50,000/mL and 20 uL/well is added to test plates w/compounds via automation (uFlow, Biotek). Each plate includes negative and positive controls (16 replicates each) to create 0% and 100% virus inhibition standards, respectively. Following the infection with RSV, testing plates are incubated for 4 days in a 37° C. cell culture incubator. After the incubation, a cell viability reagent, Cell TiterGlo (Promega, Madison, WI) is added to the assay plates, which are incubated briefly, and a luminescent readout is measured (Envision, Perkin Elmer) in all the assay plates. The RSV-induced cytopathic effect, percentage inhibition, is determined from the levels of remaining cell viability. […] Various potent anti-RSV tool compounds are used as positive controls for antiviral activity.

[3] = Huh-7 CC50 (CellTiter Glo viability); type: cell-based, Human; conditions: human, Huh7 hepatocarcinoma cells
Experimental: Human hepatocarcinoma 7 (Huh7) cells were maintained in 10% FCS-containing complete DMEM. On day of assay, cells were trypsinized with 0.1% Trypsin-EDTA, washed and cultured in triplicate at 1-2×10^4 cells/well in 96-well plates with compounds dispensed at graded doses (Hewlett-Packard D300 Digital Dispenser). All wells were normalized to 0.25% DMSO. After 48 hours, CellTiter Glo (Promega) was added and incubated for 10 minutes at room temp before reading on a luminometer. % viability curves were calculated against no compound and no cell control wells. CC50 values were determined using Prism Graphpad software.

| SMILES | CC50 at 4 days [1] | EC50 [2] | EC50 (RSV strain A2) | CC50 at 48 h [3] |
| --- | --- | --- | --- | --- |
| CCC(CC)COC(=O)[C@H](C)N[P@](=O)(OC[C@@]1(CF)O[C@@H](c2ccc3c(N)ncnn23)[C@H](OC(C)=O)[C@@H]1OC(C)=O)Oc1ccccc1 [Example 60, (2R,3S,4S,5S)-5-(4-aminopyrrolo[2,1-f][1,2,4]triazin-7-yl)-2-((((S)-(((S)-1-(2-ethylbutoxy)-1-oxopropan-2-yl)amino)(Phenoxy)phosphoryl)oxy)methyl)-2-(fluoromethyl)tetrahydrofuran-3,4-diyl diacetate] | 36.2 µM | 1210 nM | 1100 nM | > 24.8 µM |
| CCOC(=O)[C@H](C)NP(=O)(OC[C@@]1(CF)O[C@@H](c2ccc3c(N)ncnn23)[C@H](O)[C@@H]1O)Oc1cccc2ccccc12 (stereo partly drawn) [Example 44, ethyl ((((2R,3S,4R,5S)-5-(4-aminopyrrolo[2,1-f][1,2,4]triazin-7-yl)-2-(fluoromethyl)-3,4-dihydroxytetrahydrofuran-2-yl)methoxy)(naphthalen-1-yloxy)phosphoryl)-L-alaninate] | 26.5 µM | 191 nM | 148 nM | 17.1 µM |
| CCC(CC)COC(=O)[C@H](C)N[P@](=O)(OC[C@@]1(CF)O[C@@H](c2ccc3c(NC(=O)c4ccccc4)ncnn23)[C@H](O)[C@@H]1O)Oc1ccccc1 [Example 75, 2-ethylbutyl ((S)-(((2R,3S,4R,5S)-5-(4-benzamidopyrrolo[2,1-f][1,2,4]triazin-7-yl)-2-(fluoromethyl)-3,4-dihydroxytetrahydrofuran-2-yl)methoxy)(phenoxy)phosphoryl)-L-alaninate] | – | 175 nM | – | – |
| CCC(=O)O[C@H]1[C@H](c2ccc3c(N)ncnn23)O[C@](CF)(CO[P@@](=O)(N[C@@H](C)C(=O)OCC(CC)CC)Oc2ccccc2)[C@H]1OC(=O)CC (single isomer, unassigned) [Example 61] | 19.1 µM | 568 nM | 855 nM | 15 µM |
| CCOC(=O)[C@H](C)NP(=O)(OC[C@@]1(CF)O[C@@H](c2ccc3c(N)ncnn23)[C@H](O)[C@@H]1O)Oc1ccc(C(C)(C)C)cc1 (mixture of isomers) [Example 47, ethyl ((((2R,3S,4R,5S)-5-(4-aminopyrrolo[2,1-f][1,2,4]triazin-7-yl)-2-(fluoromethyl)-3,4-dihydroxytetrahydrofuran-2-yl)methoxy)(4-(tert-butyl)phenoxy)phosphoryl)-L-alaninate] | 65.9 µM | 650 nM | 389 nM | 21.4 µM |
| C[C@H](NP(=O)(OC[C@@]1(CF)O[C@@H](c2ccc3c(N)ncnn23)[C@H](O)[C@@H]1O)Oc1ccccc1)C(=O)OCC(C)(C)C(F)(F)F (stereo partly drawn) [Example 53, 3,3,3-trifluoro-2,2-dimethylpropyl ((((2R,3S,4R,5S)-5-(4-aminopyrrolo[2,1-f][1,2,4]triazin-7-yl)-2-(fluoromethyl)-3,4-dihydroxytetrahydrofuran-2-yl)methoxy)(phenoxy)phosphoryl)-L-alaninate] | > 100 µM | 419 nM | 565 nM | 19.7 µM |
| C[C@H](NP(=O)(OC[C@@]1(CF)O[C@@H](c2ccc3c(N)ncnn23)[C@H](O)[C@@H]1O)Oc1ccccc1)C(=O)O[C@@H]1CCN(C)C1 (stereo partly drawn) [Example 35, (R)-1-methylpyrrolidin-3-yl ((((2R,3S,4R,5S)-5-(4-aminopyrrolo[2,1-f][1,2,4]triazin-7-yl)-2-(fluoromethyl)-3,4-dihydroxytetrahydrofuran-2-yl)methoxy) (phenoxy)phosphoryl)-L-alaninate] | > 100 µM | > 25000 nM | 42800 nM | > 25 µM |
| C[C@H](N[P@](=O)(OC[C@@]1(CF)O[C@@H](c2ccc3c(N)ncnn23)[C@H](O)[C@@H]1O)Oc1ccccc1)C(=O)OC1COC1 [Example 72, oxetan-3-yl ((S)-(((2R,3S,4R,5S)-5-(4-aminopyrrolo[2,1-f][1,2,4]triazin-7-yl)-2-(fluoromethyl)-3,4-dihydroxytetrahydrofuran-2-yl)methoxy)(phenoxy)phosphoryl)-L-alaninate] | > 50 µM | 12400 nM | 15600 nM | > 25 µM |
| CO[C@H](C)COC(=O)[C@H](C)NP(=O)(OC[C@@]1(CF)O[C@@H](c2ccc3c(N)ncnn23)[C@H](O)[C@@H]1O)Oc1ccccc1 (stereo partly drawn) [Example 39, (R)-2-methoxypropyl ((((2R,3S,4R,5S)-5-(4-aminopyrrolo[2,1-f][1,2,4]triazin-7-yl)-2-(fluoromethyl)-3,4-dihydroxytetrahydrofuran-2-yl)methoxy)(phenoxy)phosphoryl)-L-alaninate] | > 100 µM | – | 2470 nM | – |
| CO[C@@H](C)COC(=O)[C@H](C)NP(=O)(OC[C@@]1(CF)O[C@@H](c2ccc3c(N)ncnn23)[C@H](O)[C@@H]1O)Oc1ccccc1 (stereo partly drawn) [Example 30, (S)-2-methoxypropyl ((((2R,3S,4R,5S)-5-(4-aminopyrrolo[2,1-f][1,2,4]triazin-7-yl)-2-(fluoromethyl)-3,4-dihydroxytetrahydrofuran-2-yl)methoxy)(phenoxy)phosphoryl)-L-alaninate] | > 100 µM | – | 4130 nM | – |
| CCC(CC)COC(=O)[C@H](C)N[P@](=O)(OC[C@@]1(CF)O[C@@H](c2ccc3c(N)ncnn23)[C@H](OC(=O)C(C)C)[C@@H]1OC(=O)C(C)C)Oc1ccccc1 (single isomer, unassigned) [Example 62] | – | 662 nM | 10100 nM | 8.09 µM |
| CCC(CC)COC(=O)[C@H](C)NP(=O)(OC[C@@]1(CCl)O[C@@H](c2ccc3c(N)ncnn23)[C@H](O)[C@@H]1O)Oc1ccccc1 (stereo partly drawn) [Comp. Ex. 1, 2-ethylbutyl ((((2R,3S,4R,5S)-5-(4-aminopyrrolo[2,1-f][1,2,4]triazin-7-yl)-2-(chloromethyl)-3,4-dihydroxytetrahydrofuran-2-yl)methoxy)(phenoxy)phosphoryl)-L-alaninate, reference compound] | – | 2330 nM | – | – |
| CC(C)C(=O)O[C@H]1[C@H](c2ccc3c(N)ncnn23)O[C@](CF)(CO[P@@](=O)(N[C@@H](C)C(=O)OC2COC2)Oc2ccccc2)[C@H]1OC(=O)C(C)C (single isomer, unassigned) [Example 73] | – | 302 nM | – | 9.34 µM |
| C[C@H](NP(=O)(OC[C@@]1(CF)O[C@@H](c2ccc3c(N)ncnn23)[C@H](O)[C@@H]1O)Oc1ccccc1)C(=O)OC1CCOCC1 (stereo partly drawn) [Example 64, tetrahydro-2H-pyran-4-yl ((((2R,3S,4R,5S)-5-(4-aminopyrrolo[2,1-f][1,2,4]triazin-7-yl)-2-(fluoromethyl)-3,4-dihydroxytetrahydrofuran-2-yl)methoxy)(phenoxy)phosphoryl)-L-alaninate] | – | 2000 nM | – | > 25 µM |
